Consider one molecule from patent US10668080B2, “Phosphaplatin compounds as therapeutic agents for treatment of bone or blood cancers” (Phosplatin Therapeutics LLC, priority 2017, dated 2020).

Data set [1] relates to metastatic castration resistant prostate cancer (mCRPC). As to the kind of experiment: Phase I study, decline in serum alkaline phosphatase in patient with mCRPC. It counts as in vivo, human. The conditions noted are these: 250 mg/m^2 on days 1, 8, 15 of 28 day cycle. As to the method: In an ongoing phase I solid tumor dose escalation study, R,R-pyrodach-2 (PT-112) was given to a patient with mCRPC at a dose of 250 mg/m^2, dosed on days 1, 8, and 15 of a 28 day cycle. The patient enrolled in the study with elevated serum alkaline phosphatase levels, a sign of metastatic bone disease.
Upon treatment start, the patient experienced a rapid decline in serum alkaline phosphatase levels, a sign of anticancer drug activity at cancerous bone lesions. These measurements were fractionated to validate the proportion of the result emanating from bone (vs. liver). The bone proportion represented the vast majority of the result, validating the relationship to the metastatic bone disease in this patient.

Data set [2] relates to cancerous cell lines, including leukemia and multiple myeloma cell lines resistant to lenalidomide, dexamethasone, and/or bortezomib. Description: In vitro experiments on several cancerous cell lines. It counts as cell-based. Particulars: several different cancerous cell lines. An excerpt: Thus, these bone tissues are exposed to (R,R)-pyrodach-2 (or derived Pt) at concentrations much higher than what is normally needed to induce cancer cell death.

Data set [3] is described as follows: LA-ICP-MS imaging, distribution and quantification of platinum in mouse whole-body sections. It counts as in vivo, CD-1 mice. Particulars: (R,R)-pyrodach-2 or derived Pt; treated mice. The method, then: Five CD-1 mice were dosed with (R,R)-pyrodach-2, intravenous (IV), at a concentration of 90 mg/kg, and one additional mouse was dosed with vehicle (phosphate buffer). After dosing, the (R,R)-pyrodach-2 treated mice were euthanized at different time points (45 min, 3 hr, 12 hr, 24 hr, and 72 hr), and the control mouse was euthanized at 45 minutes post dosing. Subsequently, carcasses were snap frozen at −70° C. Slides of full body sagittal plane cross sections were prepared for the control, 45 min, and 24 hr mice. Laser Ablation Inductively Coupled Plasma Mass Spectrometry (LA-ICP-MS) was then used to scan the slides for the concentration of Pt (an atomic component of (R,R)-pyrodach-2) across the entire full body cross sections. Additional slides were prepared from adjacent positions and hematoxylin & eosin (H&E) stained to map the Pt signal to different organs and tissues.
To detect the Platinum element (Pt) by LA-ICP-MS imaging into mouse whole-body sections at 150 μm spatial resolution covering the entire sections in the different section planes for the animals: Treated 45 min, Treated 24 h and Control 45 min (3 sectioning levels per animal).
The mice were sectioned at 20 μm thickness in 3 different section planes with a cryostat and mounted onto ITO glass slides. […]

The subject of a further data set is Vk12598-engrafted mice. As to the kind of experiment: Mice engrafted with bortezomib resistant Vk12598 line, survival. Particulars: 62.5 mg/kg IP twice a week for two weeks; for survival: versus vehicle control (all died by 21 days). The data set is classed as in vivo. The method, then:
(§1) The trans-pyrodach-2 compound is tested on the multiple myeloma mouse model, in particular Vk*MYC mice, which has been reported to be a faithful preclinical model that predicts the clinical activity of drugs in untreated and relapsed MM (Chesi, M., et al., Cancer Cell, 2008, 23, 167-180; Chesi, M., et al., Blood, 2012, 120(2): 376-385). Additionally, the trans-pyrodach-2 compound was tested in mice engrafted with the more aggressive bortezomib resistant Vk12598, and in the multidrug resistant Vk12653 lines, both of which were generated from Vk*MYC mice.
(§2) Additionally, mice were engrafted with the Vk12598 transplantable line and received vehicle (n=11) or (R,R)-pyrodach-2 at a concentration of 62.5 mg/kg (n=12). Mice engrafted with the Vk12653 transplantable line were likewise treated with vehicle (n=10) or (R,R)-pyrodach-2 at 62.5 mg/kg (n=10). Both Vk12598 and Vk12653 engrafted mice were treated twice a week for two weeks via IP injection and monitored via survival and M-spike levels, respectively.

The test system of a further data set is Vk12653-engrafted mice. As to the kind of experiment: Mice engrafted with multidrug resistant Vk12653 line, M-spike levels. The data set is classed as in vivo. The conditions noted are these: 62.5 mg/kg IP twice a week for two weeks. As to the method: as §1, §2
Data set [4] in a line: Phase I solid tumor dose escalation study, safety. The data set is classed as in vivo, human. The conditions noted are these: phase I trial; MTD yet to be determined. As to the method: In an ongoing phase I solid tumor dose escalation study, R,R-pyrodach-2 (PT-112) was given to a patient with mBCC at a dose of 150 mg/m^2, dosed on days 1, 8, and 15 of a 28 day cycle.
A further data set concerns de novo Vk*MYC mice. Description: Multiple myeloma mouse model, de novo Vk*MYC mice, M-spike levels. It counts as in vivo. The method, then:
as §1
De novo Vk*MYC mice were aged to one year or longer, and M-spike levels were monitored. After the concentrations of the predominant M-spike reached levels of between about 10 and 70 g/L (estimated by densitometry, comparing M-spike to albumin), mice were candidates for starting drug treatment. Mice brought onto the study were dosed either twice weekly (n=2) or thrice (n=1) weekly at a concentration of 100 or 67 mg/kg (R,R)-pyrodach-2, respectively, administered via IP injection after preparation in a phosphate buffer solution. M-spike levels were measured weekly, and post-treatment measurements were compared and normalized to the pre-treatment baseline measurement. Dosing was halted after two weeks of treatment.

Consider `O=P1(O)OP(=O)(O)[O][Pt]2([NH][C@@H]3CCCC[C@H]3[NH]2)[O]1` (stereo partly drawn) [(R,R)-pyrodach-2, trans-(R,R)-1,2-cyclohexanediamine-(dihydrogenpyrophosphato) platinum(II)], for which the “serum alkaline phosphatase levels” value in data set [1] is “rapid decline”. Besides, the “concentrations sufficient to kill cancer cells” value in data set [2] was “low micromolar”. In addition, in data set [3], the “distribution to bone compartments” value is reported as “clearly concentrates in bone compartments at very high concentrations over a long period of time”. In addition, in the data set with Vk12598-engrafted mice, the complete responses result is given as “durable, complete response lasting over six months”. For the same molecule, the survival entry in the data set on Vk12598-engrafted mice is “significant increases in survival”; with Vk12598-engrafted mice (listed as (R,R)-Pyrodach-2), “increased survival”. The results for the “M-spike levels in comparison to vehicle control” value in the data set with Vk12653-engrafted mice and in the data set on Vk12653-engrafted mice (listed as (R,R)-Pyrodach-2) were “statistically significant reduction” and “repression of M-spike level elevations”, respectively. For the same molecule, the “highest dose deemed to be safe” value in data set [4] is reported as 360 mg/m^2. Also, the “results compared with approved MM SoC agents” value in the data set on de novo Vk*MYC mice (M-spike response in Vk*MYC model) is on record as “comparable or superior”. Further, in the data set with de novo Vk*MYC mice (given twice or thrice weekly, Vk*MYC mouse model), the tolerability entry is listed as “well tolerated”.
